Results as given in PMC5428354, “Screening of a natural compound library identifies emodin, a natural compound from Rheum palmatum Linn that inhibits DPP4” (PeerJ, 2017).
“And” between values parts separate entries of the source, which are not always exact repeats. Equal values may be shown once.

What was measured:
DPP8 = DPP8 (Homo sapiens, UniProt Q6V1X1); test: DPP8 activity assay (BPS Bioscience kit); type: biochemical;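 for DPP8 assay, Emission (450 nm): fluorescence read with excitation at 365 nm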
Description: (§1) A DPP8 assay kit was purchased from BPS Bioscience (Cat# 800208), and the assay protocol was followed to test for inhibitory activity on DPP8. Briefly, DPP substrate 1 was diluted to make a 100 µM stock solution, and DPP8 protein was diluted in DPP assay buffer to 2 ng/µl (20 ng/reaction). For the tested compounds, 10 µl of diluted DPP8 protein, 5 µl of diluted DPP substrate 1, 84 µl of DPP assay buffer and 1 µl of inhibitor were addedinto the assay system for a total volume of 100 µl. The reaction mixtures were prepared in duplicate on a 96-well plate and incubated at room temperature for 10 min. […]

DPP9 = target: T1, DPP9 (Homo sapiens, UniProt Q86TI2); test: DPP9 activity assay (BPS Bioscience kit); type: biochemical; conditions: tested at 100 µM
T1 construct: purchased BPS Bioscience 800209
Description: as §1, with “DPP9” for “DPP8”, “800209),” for “800208),”, “against DPP9.” for “on DPP8.”, “added into” for “addedinto”, “µl.” for “µl. The reaction mixtures were prepared in duplicate on a 96-well plate and incubated at room temperature for 10 min.”

GLP-1 [1] = test: Plasma GLP-1 activity after oral emodin; type: in vivo, mice; design: GLP-1: unit not given here; conditions: 30 mg/kg P.O.; for GLP-1: ob/ob mice, individual animals
Description: In the subsequent experiment, emodin (30 mg/kg, P.O.) was administered on Balb/C mice (n = 5) or ob/ob (-/-) mice (n = 5). […] This downregulation maintained 2 h in Balb/C mice, and 4 h in ob/ob (-/-) mice, which rebounded afterwards (Fig. 5A). […] Plasma GLP-1 activity was also measured.

[2] = Blood glucose levels after oral emodin; type: in vivo, mice; design: unit not given here; conditions: 30 mg/kg P.O., C57BL/6 (head), individual animals
GLP-1 [3] = test: Plasma GLP-1 activity after oral emodin; type: in vivo, mice; design: unit not given here; conditions: 30 mg/kg P.O., C57BL/6 (head), individual animals
B6C3F1 mice = system: B6C3F1 mice; design: method as in National Toxicology Program, 2001; Wang & Chung, 1997; conditions: 280–2,500 ppm, ref National Toxicology Program, 2001, Wang & Chung, 1997, cited from earlier work

DPP8, sequence (Q6V1X1 whole entry): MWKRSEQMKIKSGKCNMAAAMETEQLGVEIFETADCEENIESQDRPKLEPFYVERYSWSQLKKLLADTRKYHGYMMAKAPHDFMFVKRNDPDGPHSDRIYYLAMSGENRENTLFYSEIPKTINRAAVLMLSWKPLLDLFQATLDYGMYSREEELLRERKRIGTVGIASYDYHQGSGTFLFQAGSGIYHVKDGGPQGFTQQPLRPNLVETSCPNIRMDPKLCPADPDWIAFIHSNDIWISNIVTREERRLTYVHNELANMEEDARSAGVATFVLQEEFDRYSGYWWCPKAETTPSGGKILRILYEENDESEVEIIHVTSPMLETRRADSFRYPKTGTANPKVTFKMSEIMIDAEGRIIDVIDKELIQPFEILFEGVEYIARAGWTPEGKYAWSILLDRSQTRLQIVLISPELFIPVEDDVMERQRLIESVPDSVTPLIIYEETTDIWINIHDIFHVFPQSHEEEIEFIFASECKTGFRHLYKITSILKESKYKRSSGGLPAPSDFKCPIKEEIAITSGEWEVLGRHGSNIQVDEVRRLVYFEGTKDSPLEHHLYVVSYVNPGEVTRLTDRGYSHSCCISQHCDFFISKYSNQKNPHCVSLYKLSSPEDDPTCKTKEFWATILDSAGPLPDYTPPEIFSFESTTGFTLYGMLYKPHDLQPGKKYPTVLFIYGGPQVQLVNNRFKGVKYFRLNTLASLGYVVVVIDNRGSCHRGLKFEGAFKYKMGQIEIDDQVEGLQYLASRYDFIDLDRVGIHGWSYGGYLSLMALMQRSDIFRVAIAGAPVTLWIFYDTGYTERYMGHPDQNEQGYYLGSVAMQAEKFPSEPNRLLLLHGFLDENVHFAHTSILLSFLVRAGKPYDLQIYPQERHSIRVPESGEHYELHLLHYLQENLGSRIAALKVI
T1 sequence (Q86TI2 whole entry): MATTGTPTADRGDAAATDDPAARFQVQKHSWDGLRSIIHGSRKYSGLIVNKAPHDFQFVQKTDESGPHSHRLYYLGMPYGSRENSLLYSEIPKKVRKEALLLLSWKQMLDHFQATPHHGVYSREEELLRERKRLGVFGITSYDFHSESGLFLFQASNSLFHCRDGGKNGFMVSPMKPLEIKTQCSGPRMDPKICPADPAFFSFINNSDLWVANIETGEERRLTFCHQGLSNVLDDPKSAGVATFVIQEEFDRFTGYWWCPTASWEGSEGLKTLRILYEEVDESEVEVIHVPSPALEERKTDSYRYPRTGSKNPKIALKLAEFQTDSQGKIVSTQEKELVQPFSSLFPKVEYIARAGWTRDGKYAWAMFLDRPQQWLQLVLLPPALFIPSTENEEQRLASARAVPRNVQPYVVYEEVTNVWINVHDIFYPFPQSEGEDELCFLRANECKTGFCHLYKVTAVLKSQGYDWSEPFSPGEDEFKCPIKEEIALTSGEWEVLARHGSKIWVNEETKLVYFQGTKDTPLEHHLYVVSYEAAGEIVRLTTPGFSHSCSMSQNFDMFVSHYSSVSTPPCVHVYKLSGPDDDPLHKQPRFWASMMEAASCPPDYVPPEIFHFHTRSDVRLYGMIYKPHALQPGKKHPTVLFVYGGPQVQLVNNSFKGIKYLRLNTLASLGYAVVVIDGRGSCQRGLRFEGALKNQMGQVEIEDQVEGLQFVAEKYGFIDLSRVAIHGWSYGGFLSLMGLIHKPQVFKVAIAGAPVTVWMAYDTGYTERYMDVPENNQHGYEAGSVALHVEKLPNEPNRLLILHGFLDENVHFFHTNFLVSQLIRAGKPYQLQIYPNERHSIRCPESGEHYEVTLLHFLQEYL

For Cc1cc(O)c2c(c1)C(=O)c1cc(O)cc(O)c1C2=O [Emodin], the “DPP8 assay, Emission (450 nm)” value (DPP8; 100 µM, Exp #1-#5) was 25326 and 25088 and 25860 and 47385 and 48311, the DPP8 activity (DPP8; 100 µM, Exp #1-#5, DMSO = Ctrl) was 91.7 % of Ctrl and 91.1 % of Ctrl and 90.2 % of Ctrl and 93.0 % of Ctrl and 89.9 % of Ctrl and the “activity against DPP8” value (DPP8; tested at 100 µM) was “without inhibiting”. The “activity against DPP9” value (DPP9) was “without inhibiting”, the “effect on plasma GLP-1 activity” value (GLP-1 [1]; Balb/C and ob/ob (-/-) mice) was “marginal effect” and the GLP-1 (GLP-1 [1]; 0 hours (baseline)) was 1.6192 and 1.6714 and 1.7758 and 1.3843 and 3.4984. The GLP-1 (GLP-1 [1]; 1 hours) was 2.9503 and 1.4365 and 2.8459 and 1.8541 and 2.8981, the GLP-1 (GLP-1 [1]; 2 hours) was 3.5245 and 3.4201 and 0.5491 and 2.4022 and 2.2456 and the GLP-1 (GLP-1 [1]; 4 hours) was 0.9667 and 2.1673 and 1.2538 and 1.5148 and 2.9503. The GLP-1 (GLP-1 [1]; 8 hours) was 3.655 and 0.784 and 1.2277 and 3.1852, the Blood glucose ([2]; 0 hours (baseline)) was 15.5 and 10.4 and 10.9 (2×) and 11.2 and the Blood glucose ([2]; 1 hours) was 10.8 (2×) and 12.2 and 9.3 and 9.7. For the same compound, the Blood glucose ([2]; 2 hours) was 9.3 and 9.7 and 8.4 and 8.3 and 8, the Blood glucose ([2]; 4 hours) was 8.3 and 7.4 and 7.6 and 9.1 and 7.9 and the Blood glucose ([2]; 8 hours) was 15.9 and 11.5 and 12.6 (2×) and 15.3. For the same compound, the GLP-1 (GLP-1 [3]; 0 hours (baseline)) was 2.4022 and 3.1852 and 3.2635 and 2.9242 and 1.0711, the GLP-1 (GLP-1 [3]; 1 hours) was 2.5849 and 2.8981 and 2.4805 and 2.9503 and 0.9928 and the GLP-1 (GLP-1 [3]; 2 hours) was 2.6371 and 2.5849 and 2.9242 and 1.3843 and 2.0629. The GLP-1 (GLP-1 [3]; 4 hours) was 2.6893 and 3.1069 and 3.0808 and 3.2113 and 0.4708, the GLP-1 (GLP-1 [3]; 8 hours) was 1.9063 and 3.394 and 3.3157 and 2.0107 and 0.2881 and the carcinogenic activity (B6C3F1 mice; female B6C3F1 mice) was “no evidence of carcinogenic activity”. The nephropathy (B6C3F1 mice; female mice) was “increased incidences” and the renal tubule pigmentation (B6C3F1 mice; male and female mice) was “increased incidences”.
